{"source": "paper PMC10374545", "about": "“A small molecule inhibitor of PTP1B and PTPN2 enhances T cell anti-tumor immunity” (Nature Communications, 2023)", "key": {"[1]": {"tested_on": "OT-I CD8+ T cells", "assay": "Intracellular IFNγ, TNF and Granzyme B in activated OT-I T cells", "assay_type": "cell-based, mouse", "set-up": "Grzmb, single replicates / IFN TNF, single replicates / IFN TNF, column mean / Grzmb, difference between medians: Actual / Grzmb, difference between medians: Hodges-Lehmann / IFN TNF, group mean (Mean 2): unit not given here", "conditions": "for IFN TNF, group mean (Mean 2): N 6", "protocol": "Single-cell suspensions from spleens and lymph nodes were obtained as described previously. For the detection of intracellular cytokines and granzyme B, T cells were fixed and permeabilized with the BD Cytofix/Cytoperm kit according to the manufacturer’s instructions. Briefly, T cells were first surface stained with fluorophore-conjugated antibodies and then fixed followed by permeabilization on ice for 20 min. Fixed and permeabilized cells were stained for IFN-γ, TNF, and granzyme B for 45 min at room temperature. For the detection of intracellular FoxP3 the Foxp3/Transcription Factor Staining Buffer Set (eBioscience) was used according to the manufacturer’s instructions. Briefly, cells were fixed and permeabilized for 1 h on ice followed by intracellular staining at room temperature for 45 min. For the detection of serum cytokines, the BD CBA Mouse Inflammation Kit™ was used according to the manufacturers’ instructions.\nFor the detection of intracellular IFNγ, TNF and Granzyme B, single-cell suspensions were obtained from lymph nodes of wild type (OT-I;Ptpn2^fl/fl) or PTPN2-deficient (OT-I;Lck-Cre;Ptpn2^fl/fl) mice and stimulated with 1 nM N4 peptide for 16 h and rested in complete T cell media supplemented with IL-2 (5 ng/ml) and IL-7 (0.2 ng/ml) for 2 days. […] Cells were then stained with fluorophore-conjugated antibodies to cell surface CD8 and intracellular IFNγ, TNF, and Granzyme B and analyzed by flow cytometry."}, "[2]": {"tested_on": "STAT-5 Y694 phosphorylation in CD8+ OT-I cells", "assay": "Basal and IL-2-induced STAT-5 Y694 phosphorylation in activated OT-I cells", "assay_type": "cell-based, mouse", "conditions": "for p-STAT-5 MFI, single replicates: 1 μM, IL-2 5 ng/ml, Fig. 2F raw data, listed as CMP-182; for p-STAT-5, group mean (Mean 2): IL-2 5 ng, N 6", "protocol": "For assessing IL-2-induced STAT-5 Y694 phosphorylation (p-STAT-5) in activated OT-I cells, single cell suspension of OT-I cells from the lymph nodes of OT-I;Ptpn2^fl/fl mice were stimulated with 1 nM […] (N4) for 16 h. […] Reactions were terminated by washing the cells with ice-cold PBS and then stained with fixable viable dye and fluorophore-conjugated antibodies to CD8 on ice for 15 min. Cells were then washed and fixed with 4% (w/w) paraformaldehyde (BD Cytofix™Fixation Buffer) at room temperature for 30 min and permeabilised with 90% (v/v) methanol at −20 °C for 30 min. Permeabilised cells were incubated with a rabbit antibody specific for p-STAT-5 (p-STAT-5; D47E7, Cell Signaling Technology) for 60 min at room temperature, washed thrice with PBS and then stained with goat anti-rabbit IgG (H + L) F(ab’)2 fragment conjugated to Alexa Fluor 647 (Jackson ImmunoResearch Labs; West Grove, PA) to monitor for p-STAT-5 in CD8^+ OT-I cells by flow cytometry."}, "[3]": {"tested_on": "STAT-1 target genes in AT3-OVA tumors", "assay": "qPCR of STAT-1 target genes in AT3-OVA tumors", "assay_type": "in vivo, mouse", "set-up": "key: relative expression by comparative Ct (ΔΔCt), normalized to Rps18 or Gapdh", "conditions": "tumour gene expression, Lck-Cre;Ptpn2flfl+CMP-182, individual mice (Figure 7F)", "protocol": "For quantitative real-time PCR analysis, RNA from tumors was isolated using RNAzol (Sigma-Aldrich, St. Louis, MO), and RNA quality was assessed using a NanoDrop 2000 (Thermo Fisher Scientific, Waltham MA). mRNA was reverse-transcribed using the High-Capacity cDNA Reverse Transcription Kit (Applied Biosystems, Thermo Fisher Scientific, Waltham, MA) and processed for quantitative Real-Time PCR using the Fast SYBR Green Master Mix (Applied Biosystems, Thermo Fisher Scientific, Waltham MA) and PrimePCR™ SYBR Green Assays (Bio-Rad, Hercules, CA) for Cxcl9 (qMmuCID0023784), Cxcl10 (qMmuCED0049500), Tapbp (qMmuCEP0035035), Tap1 (qMmuCEP0057739), […], H2ab1 (qMmuCIP0029038), Cd274 (qMmuCED0044192), H2k1 (qMmuCEP0034842), Tnf (qMmuCED0004141) and Ifng (qMmuCID0006268). Relative gene expression was determined by normalization to the house-keeping gene Rps18 (qMmuCED0045430) or Gapdh (qMmuCED0027497). Gene quantification was performed with the comparative Ct (ΔΔCt) method."}, "[4]": {"conditions": "N4 1nM, 1 μM, Fig. 2B raw data, listed as CMP-182"}}, "note": "Where “and” joins values, the source holds several entries; their conditions need not be identical. Equal entries are not always repeated.", "data": [{"smiles": "CC(C)(O)CCOc1ccc2cc(O)c(N3CC(=O)NS3(=O)=O)c(F)c2c1", "note": "[Compound 182, 5-(1-Fluoro-3-hydroxy-7-(3-hydroxy-3-methylbutoxy)naphthalen-2-yl)−1,2,5-thiadiazolidin-3-one 1,1-dioxide]", "values": [{"measurement": "Grzmb, difference between medians: Actual", "setting": "[1]; CMP-182 vs. DMSO, N4, Fig. 2B", "result": 672.5}, {"measurement": "Grzmb, difference between medians: Hodges-Lehmann", "setting": "[1]; CMP-182 vs. DMSO, N4, Fig. 2B", "result": 741.5}, {"measurement": "Grzmb, single replicates", "setting": "[1]; [4]", "result": "3755 and 3056 and 3282 and 3899 and 3113 and 2884"}, {"measurement": "IFN TNF, single replicates", "setting": "[1]; [4]", "result": "32.6 and 31.1 and 31 and 36.2 and 30.7 and 32.8"}, {"measurement": "IFN TNF, group mean (Mean 2)", "setting": "[1]; N4 1nM, Fig. 2B", "result": 32.4}, {"measurement": "Grzmb, median of column B", "setting": "[1]; N4, n=6, Fig. 2B", "result": "3198, n=6"}, {"measurement": "expression of Granzyme B, IFNγ and TNF", "setting": "[1]; OT-I CD8+ T cells", "result": "increased expression"}, {"measurement": "IFN TNF, single replicates", "setting": "[1]; Vehicle (no N4), 1 μM, Fig. 2B raw data, listed as CMP-182", "result": "0.038 and 0.03 and 0.037 and 0.066 and 0.023 (2×)"}, {"measurement": "IFN TNF, group mean (Mean 2)", "setting": "[1]; Vehicle (no N4), Fig. 2B", "result": 0.03617}, {"measurement": "IFN TNF, column mean", "setting": "[1]; mean over Vehicle and N4 1nM rows, two-way ANOVA, Fig. 2B", "result": 16.22}, {"measurement": "p-STAT-5 MFI, single replicates", "setting": "[2]; time 0", "result": "5942 and 5539 and 8398 and 8753 and 4540 and 4913"}, {"measurement": "p-STAT-5 MFI, single replicates", "setting": "[2]; time 5", "result": "14341 and 15725 and 15901 and 18555 and 14928 and 16788"}, {"measurement": "p-STAT-5 MFI, single replicates", "setting": "[2]; time 15", "result": "16676 and 18523 and 19580 and 20940 and 16523 and 19213"}, {"measurement": "p-STAT-5 MFI, single replicates", "setting": "[2]; time 30", "result": "16027 and 18696 and 19133 and 19342 and 15170 and 18785"}, {"measurement": "p-STAT-5 MFI, single replicates", "setting": "[2]; time 60", "result": "13163 and 13881 and 14770 and 14670 and 10937 and 14331"}, {"measurement": "p-STAT-5 MFI, single replicates", "setting": "[2]; time 120", "result": "10820 and 12152 and 10493 and 12920 and 10327 and 12862"}, {"measurement": "basal and IL-2-induced STAT-5 Y694 phosphorylation (p-STAT-5)", "setting": "[2]; CD8+ T cells", "result": "enhanced"}, {"measurement": "p-STAT-5, column mean", "setting": "[2]; CD8, IL-2 5 ng, mean over all times, two-way ANOVA, Fig. 2F", "result": 14007}, {"measurement": "p-STAT-5, group mean (Mean 2)", "setting": "[2]; Row 1 (time 0), Fig. 2F", "result": 6348}, {"measurement": "p-STAT-5, group mean (Mean 2)", "setting": "[2]; Row 2 (time 5), Fig. 2F", "result": 16040}, {"measurement": "p-STAT-5, group mean (Mean 2)", "setting": "[2]; Row 3 (time 15), Fig. 2F", "result": 18576}, {"measurement": "p-STAT-5, group mean (Mean 2)", "setting": "[2]; Row 4 (time 30), Fig. 2F", "result": 17859}, {"measurement": "p-STAT-5, group mean (Mean 2)", "setting": "[2]; Row 5 (time 60), Fig. 2F", "result": 13625}, {"measurement": "p-STAT-5, group mean (Mean 2)", "setting": "[2]; Row 6 (time 120), Fig. 2F", "result": 11596}, {"measurement": "pSTAT5, single replicates", "setting": "[2]; N4 1 nM 16 h, then 1 μM 1 h, no IL-2, Fig. 2E raw data, listed as WT+I", "result": "60.1 and 62.9 and 57.6 and 60.3"}, {"measurement": "pSTAT5%, mean of differences (B - A)", "setting": "[2]; WT+I vs. WT, 4 pairs, Fig. 2E", "result": 12.98}, {"measurement": "H2-Ab1", "setting": "[3]", "result": "1.37 and 2.449 and 1.819 and 1.855 and 0.6743 and 0.4848"}, {"measurement": "IFNg", "setting": "[3]", "result": "2.663 and 2.871 and 3.337 and 2.746 and 0.6434 and 0.3583"}, {"measurement": "cd274", "setting": "[3]", "result": "1.409 and 1.249 and 1.434 and 1.371 and 1.147 and 0.5391"}, {"measurement": "cxcl9", "setting": "[3]", "result": "1.651 and 1.828 and 1.511 and 1.806 and 0.4356 and 0.3111"}, {"measurement": "cxcl10", "setting": "[3]", "result": "1.078 and 1.3193 and 1.359 and 1.098 and 0.6504 and 0.3928"}]}]}
